SMILES strings stand for the structures.

In this experiment the test system is sows. As to the kind of experiment: Oral L-arginine supplementation of sows during pregnancy. Format: in vivo, pigs. The method, then: The experiment was performed with 197 sows that had already produced at least one litter. Sows in the control group (n=95) received a normal diet during gestation. Sows in the L-arginine group (n=102) received a normal diet from insemination until day 13 of pregnancy, an L-arginine supplemented diet from day 14 until day 31, again the control diet from day 32 until day 104 and again the L-arginine supplemented diet from day 105 until farrowing.
The L-arginine supplemented diet was the same as the control diet, except for the addition of 10 g L-arginine per kg.

Turning to `N=C(N)NCCC[C@H](N)C(=O)O` [L-arginine], the “Sows (litters) with stillborn piglets” value (41 sows of the L-arginine group, same percentage as control) is reported as 47.1%. Besides, the “Average number of stillborn piglets in litters with stillborn piglets” value (not significantly different from control) is given as 1.86±0.22. Where the note is “piglets born alive, corrected for litter size”, the “Birth weight NBA corrected for LS” value is recorded as 1597 ± 24 g. Further, the “Birth weight NBA” value (piglets born alive, not corrected for litter size) was found to be 1584 ± 27 g. In addition, the “Total number born + mummies” value (piglets per litter, corrected for parity, L-arginine diet day 14-31 and day 105 until farrowing, p<0.05 vs control) is 12.74 ± 0.31. For the same compound, the “Total number born (TNB)” value (piglets per litter, L-arginine diet day 14-31 and day 105 until farrowing, p<0.05 vs control) came out at 12.69 ± 0.31. Besides, the “Number born alive (NBA)” value (piglets per litter, L-arginine diet day 14-31 and day 105 until farrowing, p=0.055 vs control) was 11.77 ± 0.30^+. Under “piglets, total number born, corrected for litter size”, the “Birth weight TNB corrected for LS” value came out at 1578 ± 23 g. Moreover, the “Birth weight TNB” value (piglets, total number born, not corrected for litter size) came out at 1563 ± 27 g. Under “sows, diet with 10 g L-arginine per kg added, day 14-31 and day 105 until farrowing, 87/102”, this compound yielded a Farrowing rate of 85%. Further, the “Effect on litter size (total number born and number born alive), piglets extra” value (versus control group) is reported as around 1 piglet.

For the origin of these results see patent US8303979B2, “Dietary modifications to improve fertility” (Nutreco Nederland B.V., priority 2001, dated 2012).
